Experimental data reported in patent publication US20080171720A1, “Nutritional Supplement For Hiv Patients” (N.V. Nutricia, priority 2005, published 2008).

System: intestinal tight junction permeability
Assay: Inflammatory mediated intestinal tight junction permeability
Settings: no method or data given

## CCCCC/C=C\C/C=C\C/C=C\CCCCC(=O)O [GLA, gamma linolenic acid]
  reduction of inflammatory mediated intestinal tight junction permeability: effectively reduce inflammatory mediated intestinal tight junction permeability
